# Results: patent publication EP4745145A1, “SALT OF THIAZOLOPYRAZINE COMPOUND OR CRYSTAL THEREOF AND USE THEREOF” (Simcere Zaiming Pharmaceutical Co., Ltd., priority 2023, dated 2025)
# Where a name gives a salt, the structure may show the parent alone.
# Key:
# Assay type in all cases: physicochemical
# [1] = Influencing factor experiment (stability under high temperature, high humidity, light)
# Protocol: (§1) Each test sample was placed under high temperature (60 °C), high humidity (92.5%), light (7000 lux), or accelerated (40 °C, 75% RH) conditions using a 2 mL screw-thread sample vial in an open state; each sample was placed with packaging (2 layers of medicinal low-density polyethylene bags + 1 layer of polyester/aluminum/polyethylene medicinal composite film bag) under light (7000 lux) or accelerated (40 °C, 75% RH) conditions to investigate the stability of the sample.
# [2] = Accelerated experiment (stability at 40 °C, 75% RH)
# Protocol: as §1
# [3] = Solubility experiment in water
# Protocol: The thermodynamic solubility of the compounds of the present disclosure was determined using the following test method.
# The thermodynamic solubility of the compounds of the present disclosure in water was investigated. Water (1000 µL) was measured and placed into a 1 mL transparent glass tube with a stopper. An appropriate amount of each sample was weighed and added to saturate the solution, and the solution was shaken to disperse the sample. […] Then, an appropriate amount of the sample was taken, filtered through a microporous filter membrane, and subjected to content determination using high-performance liquid chromatography with an external standard method. The thermodynamic solubility of each compound in water (µg/mL) was calculated.
# [4] = Hygroscopicity experiment (dynamic vapor sorption); conditions: 80.0% RH, 25 °C
# Protocol: Test conditions for the instruments used in the experiments of the present disclosure: • 1. X-ray powder diffraction • Instrument model: Bruker D8 Focus • X-ray light source: Cu Kα • Kα1 (Å): 1.54060; • Wavelength λ (Å): 1.54060 • Slit (°): 2.5 • Scan mode: θ/2θ, scan range: 3-40° (2θ angle) • Retention time (s): 0.12 • Scanning step length (° 2θ): 0.01 • Voltage: 40 kV • Current: 40 mA • 2. Differential scanning calorimeter • Instrument model: Discovery DSC 2500 • Purging gas: nitrogen • Sample tray: aluminum tray, non-sealing gland • Method: linear heating • Ramping rate: 10 °C/min • Temperature range: 30 °C-400 °C • 3. Thermogravimetric analyzer • Instrument model: Discovery TA 55 • Purging gas: nitrogen • Sample tray: platinum, open • Method: linear heating • Ramping rate: Ramp from a starting temperature of 30 °C to 400 °C at a rate of 10 °C/min • Temperature range: 30 °C-400 °C • 4. Dynamic vapor sorption instrument • Instrument model: DVS Intrinsic. • DVS parameters: • Temperature: 25 °C; • Equilibrium: dm/dt = 0.002%/min • RH (%) test gradient: 10% • Range of RH (%) test gradient: 0%-90%-0%. • 5. Ion chromatography • Instrument model: Thermo Fisher Integrion, No. IC001 • Test method: Conductivity […] • Separation column: Dionex IonpacTM CS12 Guard 4 × 250 mm • Eluent: 20 mM methanesulfonic acid solution • Flow rate: 1.0 mL/min
# • (1) Experimental instrument: dynamic vapor sorption DVS Intrinsic. • (2) Experimental conditions: Each test sample was taken and placed in a DVS sample pan for testing. • (3) DVS parameters: • Temperature: 25 °C; • Equilibrium: dm/dt = 0.002%/min • RH (%) test gradient: 10% • Range of RH (%) test gradient: 0%-90%-0%.
# [5] = Light (7000 lux, packaged), 10d
# [6] = Light (7000 lux, packaged), 32d
# [7] = Accelerated (40 °C), packaged, 14d
# [8] = Accelerated (40 °C), packaged, 32d
smiles,measurement,setting,value
COc1ccc(Cl)cc1-c1cc(C)ncc1C(=O)Nc1nc2ncc(-c3ccc(C#N)cc3)nc2s1 [Amorphous form of sodium salt of compound of formula I],Purity,"[1]; 0 h, 0d",99.31%
same,Total impurities,"[1]; 0 h, 0d",0.52%
same,Purity,"[1]; High humidity (92.5% RH), 11d",98.89%
same,Total impurities,"[1]; High humidity (92.5% RH), 11d",1.11%
same,Purity,"[1]; High temperature (60 °C), 11d",99.23%
same,Total impurities,"[1]; High temperature (60 °C), 11d",0.77%
same,Purity,"[1]; Light (7000 lux, open), 7d",97.57%
same,Total impurities,"[1]; Light (7000 lux, open), 7d",2.43%
same,Purity,"[2]; 0 h, 0d",99.31%
same,Total impurities,"[2]; 0 h, 0d",0.52%
same,Purity,"[2]; Accelerated (40 °C), open, 7d",99.33%
same,Total impurities,"[2]; Accelerated (40 °C), open, 7d",0.67%
same,Dynamic solubility in water,"[3]; 1h, 60 min",1.57 µg/mL
same,Dynamic solubility in water,"[3]; 2h, 120 min",4.37 µg/mL
same,Dynamic solubility in water,"[3]; 4h, 240 min",44.68 µg/mL
same,Dynamic solubility in water,"[3]; 24h, 1440 min",0.72 µg/mL
COc1ccc(Cl)cc1-c1cc(C)ncc1C(=O)Nc1nc2ncc(-c3ccc(C#N)cc3)nc2s1 [Crystal form A],Purity,"[1]; 0 h, 0d",99.21%
same,Total impurities,"[1]; 0 h, 0d",0.79%
same,Purity,"[1]; High humidity (92.5% RH), 7d",99.26%
same,Total impurities,"[1]; High humidity (92.5% RH), 7d",0.74%
same,Purity,"[1]; High humidity (92.5% RH), 14d",99.20%
same,Total impurities,"[1]; High humidity (92.5% RH), 14d",0.80%
same,Purity,"[1]; High humidity (92.5% RH), 32d",99.21%
same,Total impurities,"[1]; High humidity (92.5% RH), 32d",0.79%
same,Purity,"[1]; High temperature (60 °C), 7d",99.23%
same,Total impurities,"[1]; High temperature (60 °C), 7d",0.77%
same,Purity,"[1]; High temperature (60 °C), 14d",99.17%
same,Total impurities,"[1]; High temperature (60 °C), 14d",0.83%
same,Purity,"[1]; High temperature (60 °C), 32d",99.15%
same,Total impurities,"[1]; High temperature (60 °C), 32d",0.85%
same,Purity,"[1]; Light (7000 lux, open), 7d",99.11%
same,Total impurities,"[1]; Light (7000 lux, open), 7d",0.89%
same,Purity,"[1]; Light (7000 lux, open), 14d",98.75%
same,Total impurities,"[1]; Light (7000 lux, open), 14d",1.25%
same,Purity,"[1]; Light (7000 lux, open), 32d",98.24%
same,Total impurities,"[1]; Light (7000 lux, open), 32d",1.76%
same,Purity,[1]; [5],99.19%
same,Total impurities,[1]; [5],0.81%
same,Purity,[1]; [6],99.22%
same,Total impurities,[1]; [6],0.78%
same,weight gain due to moisture absorption,[4],1.6%
same,Purity,"[2]; 0 h, 0d",99.21%
same,Total impurities,"[2]; 0 h, 0d",0.79%
same,Purity,"[2]; Accelerated (40 °C), open, 7d",99.21%
same,Total impurities,"[2]; Accelerated (40 °C), open, 7d",0.79%
same,Purity,"[2]; Accelerated (40 °C), open, 14d",99.17%
same,Total impurities,"[2]; Accelerated (40 °C), open, 14d",0.83%
same,Purity,"[2]; Accelerated (40 °C), open, 32d",99.18%
same,Total impurities,"[2]; Accelerated (40 °C), open, 32d",0.82%
same,Purity,[2]; [7],99.19%
same,Total impurities,[2]; [7],0.81%
same,Purity,[2]; [8],99.19%
same,Total impurities,[2]; [8],0.81%
same,Dynamic solubility in water,"[3]; 1h, 60 min",2081.71 µg/mL
same,Dynamic solubility in water,"[3]; 2h, 120 min",1590.35 µg/mL
same,Dynamic solubility in water,"[3]; 4h, 240 min",1441.04 µg/mL
same,Dynamic solubility in water,"[3]; 24h, 1440 min",27.01 µg/mL
COc1ccc(Cl)cc1-c1cc(C)ncc1C(=O)Nc1nc2ncc(-c3ccc(C#N)cc3)nc2s1 [Crystal form B],Purity,"[1]; 0 h, 0d",98.89%
same,Total impurities,"[1]; 0 h, 0d",1.11%
same,Purity,"[1]; High humidity (92.5% RH), 7d",98.60%
same,Total impurities,"[1]; High humidity (92.5% RH), 7d",1.40%
same,Purity,"[1]; High humidity (92.5% RH), 14d",98.89%
same,Total impurities,"[1]; High humidity (92.5% RH), 14d",1.11%
same,Purity,"[1]; High humidity (92.5% RH), 32d",98.83%
same,Total impurities,"[1]; High humidity (92.5% RH), 32d",1.17%
same,Purity,"[1]; High temperature (60 °C), 7d",98.98%
same,Total impurities,"[1]; High temperature (60 °C), 7d",1.02%
same,Purity,"[1]; High temperature (60 °C), 14d",98.93%
same,Total impurities,"[1]; High temperature (60 °C), 14d",1.07%
same,Purity,"[1]; High temperature (60 °C), 32d",98.84%
same,Total impurities,"[1]; High temperature (60 °C), 32d",1.16%
same,Purity,"[1]; Light (7000 lux, open), 7d",98.84%
same,Total impurities,"[1]; Light (7000 lux, open), 7d",1.16%
same,Purity,"[1]; Light (7000 lux, open), 14d",98.85%
same,Total impurities,"[1]; Light (7000 lux, open), 14d",1.15%
same,Purity,"[1]; Light (7000 lux, open), 32d",98.73%
same,Total impurities,"[1]; Light (7000 lux, open), 32d",1.27%
same,Purity,[1]; [5],98.90%
same,Total impurities,[1]; [5],1.10%
same,Purity,[1]; [6],98.90%
same,Total impurities,[1]; [6],1.10%
same,weight gain due to moisture absorption,[4],1.5%
same,Purity,"[2]; 0 h, 0d",98.89%
same,Total impurities,"[2]; 0 h, 0d",1.11%
same,Purity,"[2]; Accelerated (40 °C), open, 7d",98.84%
same,Total impurities,"[2]; Accelerated (40 °C), open, 7d",1.16%
same,Purity,"[2]; Accelerated (40 °C), open, 14d",98.87%
same,Total impurities,"[2]; Accelerated (40 °C), open, 14d",1.13%
same,Purity,"[2]; Accelerated (40 °C), open, 32d",98.88%
same,Total impurities,"[2]; Accelerated (40 °C), open, 32d",1.12%
same,Purity,[2]; [7],98.87%
same,Total impurities,[2]; [7],1.13%
same,Purity,[2]; [8],98.82%
same,Total impurities,[2]; [8],1.18%
same,Dynamic solubility in water,[3]; 1h,<0.5 µg/mL
same,Dynamic solubility in water,[3]; 2h,<0.5 µg/mL
same,Dynamic solubility in water,[3]; 4h,<0.5 µg/mL
same,Dynamic solubility in water,[3]; 24h,0.77 µg/mL
COc1ccc(Cl)cc1-c1cc(C)ncc1C(=O)Nc1nc2ncc(-c3ccc(C#N)cc3)nc2s1 [Crystal form C],Purity,"[1]; 0 h, 0d",99.2%
same,Total impurities,"[1]; 0 h, 0d",0.80%
same,Purity,"[1]; High humidity (92.5% RH), 7d",99.21%
same,Total impurities,"[1]; High humidity (92.5% RH), 7d",0.79%
same,Purity,"[1]; High humidity (92.5% RH), 14d",99.20%
same,Total impurities,"[1]; High humidity (92.5% RH), 14d",0.80%
same,Purity,"[1]; High temperature (60 °C), 7d",99.26%
same,Total impurities,"[1]; High temperature (60 °C), 7d",0.74%
same,Purity,"[1]; High temperature (60 °C), 14d",99.22%
same,Total impurities,"[1]; High temperature (60 °C), 14d",0.78%
same,Purity,"[1]; Light (7000 lux, open), 7d",98.29%
same,Total impurities,"[1]; Light (7000 lux, open), 7d",1.71%
same,Purity,"[1]; Light (7000 lux, open), 14d",97.16%
same,Total impurities,"[1]; Light (7000 lux, open), 14d",2.84%
same,weight gain due to moisture absorption,[4],-4.3%
same,Purity,"[2]; 0 h, 0d",99.2%
same,Total impurities,"[2]; 0 h, 0d",0.8%
same,Purity,"[2]; Accelerated (40 °C), open, 7d",99.20%
same,Total impurities,"[2]; Accelerated (40 °C), open, 7d",0.80%
same,Purity,"[2]; Accelerated (40 °C), open, 14d",99.21%
same,Total impurities,"[2]; Accelerated (40 °C), open, 14d",0.79%
same,Dynamic solubility in water,"[3]; 1h, 60 min",857.52 µg/mL
same,Dynamic solubility in water,"[3]; 4h, 240 min",1337.74 µg/mL
same,Dynamic solubility in water,"[3]; 24h, 1440 min",108.15 µg/mL
COc1ccc(Cl)cc1-c1cc(C)ncc1C(=O)Nc1nc2ncc(-c3ccc(C#N)cc3)nc2s1 [Crystal form E],Purity,"[1]; 0 h, 0d",99.39%
same,Total impurities,"[1]; 0 h, 0d",0.52%
same,Purity,"[1]; High humidity (92.5% RH), 11d",99.48%
same,Total impurities,"[1]; High humidity (92.5% RH), 11d",0.52%
same,Purity,"[1]; High temperature (60 °C), 11d",99.25%
same,Total impurities,"[1]; High temperature (60 °C), 11d",0.75%
same,Purity,"[1]; Light (7000 lux, open), 7d",99.24%
same,Total impurities,"[1]; Light (7000 lux, open), 7d",0.76%
same,physical stability,[1]; high humidity (92.5% RH),relatively poor physical stability
same,weight gain due to moisture absorption,[4],2.5%
same,Purity,"[2]; 0 h, 0d",99.39%
same,Total impurities,"[2]; 0 h, 0d",0.52%
same,Purity,"[2]; Accelerated (40 °C), open, 7d",99.49%
same,Total impurities,"[2]; Accelerated (40 °C), open, 7d",0.51%
same,physical stability,"[2]; accelerated (40 °C, 75% RH)",relatively poor physical stability
same,Dynamic solubility in water,"[3]; 1h, 60 min",<0.5 µg/mL
same,Dynamic solubility in water,"[3]; 2h, 120 min",1.03 µg/mL
same,Dynamic solubility in water,"[3]; 4h, 240 min",2.26 µg/mL
same,Dynamic solubility in water,"[3]; 24h, 1440 min",2.72 µg/mL
